Source: patent publication US20240139149A1, “THERAPEUTIC USES OF UROLITHIN DERIVATIVES” (Vandria SA, priority 2022, published 2024)
Entries after “also recorded” stand apart in the source; their conditions may differ.

Test system: aged mice injected with Aβ1-42
Assay: Mouse model of Alzheimer's disease, intrahippocampal injection of Aβ1-42 oligomers
Assay type: in vivo
Description: A total of 18-month-old C57BL6 male mice were included in the study (n=12 per group). The animals were housed up to 4 to a cage, in clear polycarbonate cages with a stainless steel mesh lid and floor in a day/night inversed cycle (12 h/12 h). Drinking water and food were supplied ad libitum to each cage. The animals were kept for a period of acclimation of a minimum of 5 days before any handling.
All mice were subjected to surgery and were injected with 2 μL of vehicle or of A 1-42 solution. Aβ1-42 peptide (Bachem) was dissolved in the vehicle, at an initial concentration of 100 μM (the mother preparation was characterized by automatic WB, and precisely contained 15% of AβO). This solution was gently agitated for 3 days at 37° C. in the dark before any use until the day of the surgery.
The Aβ1-42 preparation was bilaterally injected into the […] of the CA1 area of the hippocampus (at three different depths). A total of 2 μL/side of A 1-42 preparation (100 μM), or vehicle, were bilaterally injected with a Hamilton syringe in the CA1 area of the hippocampus (0.2 μL/min with an Elite Nanomite syringe pump).
Vehicle (0.5% carboxy methyl cellulose (CMC)) or 33 at 1 mg/kg/d was administrated daily by gavage (per os: p.o). The treatment started 1 day after the surgery (D+1) and lasted until the end of the study (D+27). The study was stopped 4 weeks after the surgery (on D28).
The week before the surgery, a training session was performed, for habituation (5 minutes) to the maze. Fourteen (14) days after the surgery, mice were tested for short-term memory deficit in the Y-maze test.
The test was based on two trials: • Trial 1. Mice were allowed to freely explore two arms of the Y-maze during 5 min. The third arm remained closed during the trial. At the end of the 5 min, the animal was placed for 3 min in an empty cage. The Y-maze was cleaned with acetic acid to neutralize odors. • Trial 2. Mice were then allowed to freely explore the three arms of the Y-maze during 5 min. This trial corresponds to the test session.
Both trials were recorded by a video camera using Ethovision system (Noldus). The following items were automatically recorded: a) total distance in the Y-maze and b) the time spent in each arm.
At the end of the experiment (on day 28), 5 mice per group were deeply anesthetized and plasma samples were collected. Mice were then perfused with cold PBS (3 minutes), and cold paraformaldehyde (PFA) 4% in PBS (for 3 minutes).
Six (n=6) brain sections per animal were processed and incubated for 24 hours at 4° C. or 2 hours at room temperature with selected antibodies (Abs). The following antibodies were used: • NeuN: Rabbit polyclonal antibody anti-NeuN (1/1000). • Iba1: Rabbit polyclonal antibody anti-Iba1 (1/500). • Tau phospho Ser212/Thr214 (AT100): Mouse monoclonal antibody anti-AT100 (1/200).
Images were acquired with a confocal microscope LSM 900 with Zen software at 20× magnification (Zeiss) using the same acquisition parameters (automatic acquisition). […] The following read-outs were measured: • Number of NeuN positive pyramidal cells in the CA1 area. • Activation of Iba1-positive microglial cells in the CA1 area. • Activation of AT100 positive neurons in the CA1 area.
Results were analyzed using GraphPad Prism software version 8.0.2. *p<0.05 after a One-way or Two-way ANOVA followed by Fisher's test was considered significant.

SMILES: O=c1oc2cc(O)ccc2c2ccc(OC3CCOCC3)cc12 [compound 33, 3-hydroxy-8-((tetrahydro-2H-pyran-4-yl)oxy)-6H-benzo[c]chromen-6-one]
- short-term spatial memory (time in new arm, Y-maze) (1 mg/kg daily oral, 14 days post-surgery): able to prevent; also recorded: beneficial effects
- AT100 (hyperphosphorylated Tau) in neurons (1 mg/kg daily, day 1 to day 28): decrease
- activation of Iba1(+) microglial cells (1 mg/kg daily, day 1 to day 28): significantly decrease
- survival of NeuN(+) neurons in CA1 (1 mg/kg daily, day 1 to day 28): significantly improved
- total distance traveled in Y-maze (1 mg/kg/d p.o., 14 days post-surgery): not different between groups
